Results from patent US12686680B2, “Substituted pyrazolo[1,5-α]pyrimidines as CRF receptor antagonists” (Neurocrine Biosciences, Inc., priority 2019, dated 2026).
Where a name gives a salt, the structure may show the parent alone.

Key:
[1] = Solubility determination of Compound 1 Form I in various vehicles (Example 60); format: physicochemical
Protocol: The solubility of Compound 1 Form I was evaluated in various vehicles in an attempt to achieve doses of 0.5 mg/mL (IV) and 1.0 mg/mL (PO). […] Vortex mixing and sonication were used to dissolve particles, then samples were transferred to 0.22 μm nylon centrifuge tube filters and centrifuged for approximately 2 minutes @10,000 rpm. All samples were diluted with the method diluent (if necessary) and analyzed by HPLC providing the results shown in the below Table.

[2] = Solubility determination of solid forms of Compound 1 in solvents (Example 52); format: physicochemical
Excerpt: X-Ray Powder diffraction (XRPD), differential scanning calorimetry (DSC), thermal gravimetric analysis (TGA), and UV-Metric/pH-Metric Titration (SiriusT3) were used to characterize Form I of Compound 1. UPLC was used to evaluate solubility of each material in various vehicles.

CCCN(Cc1ccc(-c2csc(N(C)C)n2)cc1)c1cc(C)nc2c(-c3cnc(N(C)C)cc3C)c(C)nn12 [Compound 1 Form I, 5-{7-[({4-[2-(dimethylamino)-1,3-thiazol-4-yl]phenyl}methyl)(propyl)amino]-2,5-dimethylpyrazolo[1,5-a]pyrimidin-3-yl}-N,N,4-trimethylpyridin-2-amine]
Final/Actual pH ([1]; 50 mM Citrate, pH 2): 3.1
Solubility <USP 34> ([1]; 50 mM Citrate, pH 2): Slightly Soluble
[Compound 1] ([1]; 50 mM Citrate, pH 2): 3.3 mg/mL
Final/Actual pH ([1]; 50 mM Citrate, pH 3): 3.3
Solubility <USP 34> ([1]; 50 mM Citrate, pH 3): Slightly Soluble
[Compound 1] ([1]; 50 mM Citrate, pH 3): 1.7 mg/mL
Final/Actual pH ([1]; 50 mM Citrate, pH 4): 4.1
Solubility <USP 34> ([1]; 50 mM Citrate, pH 4): Practically
[Compound 1] ([1]; 50 mM Citrate, pH 4): ~0 mg/mL
Final/Actual pH ([1]; 50 mM Citrate, pH 5): 5.0
Solubility <USP 34> ([1]; 50 mM Citrate, pH 5): Practically
[Compound 1] ([1]; 50 mM Citrate, pH 5): ~0 mg/mL
Final/Actual pH ([1]; 50 mM Citrate, pH 6): 6.1
Solubility <USP 34> ([1]; 50 mM Citrate, pH 6): Practically
[Compound 1] ([1]; 50 mM Citrate, pH 6): ~0 mg/mL
Final/Actual pH ([1]; 50 mM Citrate, pH 7): 7.1
Solubility <USP 34> ([1]; 50 mM Citrate, pH 7): Practically
[Compound 1] ([1]; 50 mM Citrate, pH 7): ~0 mg/mL
Final/Actual pH ([1]; 50 mM Phosphate, pH 8): 8.1
Solubility <USP 34> ([1]; 50 mM Phosphate, pH 8): Practically
[Compound 1] ([1]; 50 mM Phosphate, pH 8): Below
Final/Actual pH ([1]; 1% Poloxamer 188 in Water): 8.0
Solubility <USP 34> ([1]; 1% Poloxamer 188 in Water): Practically
[Compound 1] ([1]; 1% Poloxamer 188 in Water): ~0 mg/mL
Final/Actual pH ([1]; 1% TW80 in Water): 7.6
Solubility <USP 34> ([1]; 1% TW80 in Water): Practically
[Compound 1] ([1]; 1% TW80 in Water): ~0 mg/mL
Final/Actual pH ([1]; 10% HP-β-CD in Water): 8.2
Solubility <USP 34> ([1]; 10% HP-β-CD in Water): Practically
[Compound 1] ([1]; 10% HP-β-CD in Water): ~0 mg/mL
Final/Actual pH ([1]; 100% Water): 8.3
Solubility <USP 34> ([1]; 100% Water): Practically
[Compound 1] ([1]; 100% Water): ~0 mg/mL

CCCN(Cc1ccc(-c2csc(N(C)C)n2)cc1)c1cc(C)nc2c(-c3cnc(N(C)C)cc3C)c(C)nn12 [Compound 1-1 (FB), 5-{7-[({4-[2-(dimethylamino)-1,3-thiazol-4-yl]phenyl}methyl)(propyl)amino]-2,5-dimethylpyrazolo[1,5-a]pyrimidin-3-yl}-N,N,4-trimethylpyridin-2-amine]
Solubility ([2]; 50 mM CB pH 3): 1.7 mg/mL FB
Measured pH ([2]; 50 mM CB pH 4): pH 4.1
Solubility ([2]; 50 mM CB pH 4): 0 mg/mL FB
Measured pH ([2]; 50 mM CB pH 5): pH 4.4
Solubility ([2]; 50 mM CB pH 5): 0 mg/mL FB
Measured pH ([2]; 50 mM CB pH 6): pH 6.1
Solubility ([2]; 50 mM CB pH 6): 0 mg/mL FB
Solubility ([2]; 50 mM PB pH 1): 14.9 mg/mL FB
Measured pH ([2]; 50 mM PB pH 2): pH 2.7
Solubility ([2]; 50 mM PB pH 2): 6.5 mg/mL FB
Measured pH ([2]; 50 mM PB pH 7): pH 7.0
Solubility ([2]; 50 mM PB pH 7): 0 mg/mL FB
Measured pH ([2]; 100% H2O): pH 6.7
Solubility ([2]; 100% H2O): 0 mg/mL FB

CCCN(Cc1ccc(-c2csc(N(C)C)n2)cc1)c1cc(C)nc2c(-c3cnc(N(C)C)cc3C)c(C)nn12 [Compound 1-5 (Mesylate), 5-{7-[({4-[2-(dimethylamino)-1,3-thiazol-4-yl]phenyl}methyl)(propyl)amino]-2,5-dimethylpyrazolo[1,5-a]pyrimidin-3-yl}-N,N,4-trimethylpyridin-2-amine]
Measured pH ([2]; 50 mM BB pH 9): pH 3.2
Solubility ([2]; 50 mM BB pH 9): 0.2 mg/mL FB
Measured pH ([2]; 50 mM CB pH 3): pH 3.4
Solubility ([2]; 50 mM CB pH 3): 1.0 mg/mL FB
Measured pH ([2]; 50 mM CB pH 4): pH 4.0
Solubility ([2]; 50 mM CB pH 4): 0.1 mg/mL FB
Measured pH ([2]; 50 mM CB pH 6): pH 5.1
Solubility ([2]; 50 mM CB pH 6): 0 mg/mL FB
Measured pH ([2]; 50 mM PB pH 2): pH 3.0
Solubility ([2]; 50 mM PB pH 2): 4.7 mg/mL FB
Measured pH ([2]; 50 mM PB pH 8): pH 6.7
Solubility ([2]; 50 mM PB pH 8): 0 mg/mL FB
Measured pH ([2]; 100% H2O): pH 3.5
Solubility ([2]; 100% H2O): 0.8 mg/mL FB
Solubility ([2]; ACN): 3.1 mg/mL FB
Solubility ([2]; Acetone): 1.0 mg/mL FB
Solubility ([2]; DMSO): >2.1 mg/mL FB
Solubility ([2]; EtOAc): 0.6 mg/mL FB
Solubility ([2]; EtOH): 16.6 mg/mL FB
Solubility ([2]; IPA): 2.3 mg/mL FB
Solubility ([2]; MeOH): 134.4 mg/mL FB

CCCN(Cc1ccc(-c2csc(N(C)C)n2)cc1)c1cc(C)nc2c(-c3cnc(N(C)C)cc3C)c(C)nn12 [Compound 1-2 (FB), 5-{7-[({4-[2-(dimethylamino)-1,3-thiazol-4-yl]phenyl}methyl)(propyl)amino]-2,5-dimethylpyrazolo[1,5-a]pyrimidin-3-yl}-N,N,4-trimethylpyridin-2-amine]
Measured pH ([2]; 50 mM CB pH 3): pH 3.3
Solubility ([2]; 50 mM CB pH 3): 1.7 mg/mL FB
Measured pH ([2]; 50 mM CB pH 4): pH 4.1
Solubility ([2]; 50 mM CB pH 4): 0 mg/mL FB
Measured pH ([2]; 50 mM CB pH 5): pH 5.0
Solubility ([2]; 50 mM CB pH 5): 0 mg/mL FB
Measured pH ([2]; 50 mM CB pH 6): pH 6.1
Solubility ([2]; 50 mM CB pH 6): 0 mg/mL FB
Measured pH ([2]; 50 mM PB pH 2): pH 3.1
Solubility ([2]; 50 mM PB pH 2): 3.3 mg/mL FB
Measured pH ([2]; 50 mM PB pH 7): pH 7.1
Solubility ([2]; 50 mM PB pH 7): 0 mg/mL FB
Measured pH ([2]; 50 mM PB pH 8): pH 8.1
Solubility ([2]; 50 mM PB pH 8): 0 mg/mL FB
Measured pH ([2]; 100% H2O): pH 8.3
Solubility ([2]; 100% H2O): 0 mg/mL FB

CCCN(Cc1ccc(-c2csc(N(C)C)n2)cc1)c1cc(C)nc2c(-c3cnc(N(C)C)cc3C)c(C)nn12 [Compound 1-4 (Maleate), 5-{7-[({4-[2-(dimethylamino)-1,3-thiazol-4-yl]phenyl}methyl)(propyl)amino]-2,5-dimethylpyrazolo[1,5-a]pyrimidin-3-yl}-N,N,4-trimethylpyridin-2-amine]
Measured pH ([2]; 50 mM BB pH 9): pH 4.3
Solubility ([2]; 50 mM BB pH 9): Below
Measured pH ([2]; 50 mM CB pH 3): pH 3.2
Solubility ([2]; 50 mM CB pH 3): 0.3 mg/mL FB
Measured pH ([2]; 50 mM CB pH 4): pH 3.9
Solubility ([2]; 50 mM CB pH 4): 0 mg/mL FB
Measured pH ([2]; 50 mM CB pH 6): pH 5.3
Solubility ([2]; 50 mM CB pH 6): Below
Measured pH ([2]; 50 mM PB pH 2): pH 2.5
Solubility ([2]; 50 mM PB pH 2): 3.9 mg/mL FB
Measured pH ([2]; 50 mM PB pH 8): pH 6.2
Solubility ([2]; 50 mM PB pH 8): Below
Measured pH ([2]; 100% H2O): pH 3.4
Solubility ([2]; 100% H2O): 0 mg/mL FB
Solubility ([2]; ACN): 3.6 mg/mL FB
Solubility ([2]; Acetone): 4.1 mg/mL FB
Solubility ([2]; DMSO): >2.5 mg/mL FB
Solubility ([2]; EtOAc): 1.2 mg/mL FB
Solubility ([2]; EtOH): 6.5 mg/mL FB
Solubility ([2]; IPA): 1.9 mg/mL FB
Solubility ([2]; MeOH): 27.1 mg/mL FB

CCCN(Cc1ccc(-c2csc(N(C)C)n2)cc1)c1cc(C)nc2c(-c3cnc(N(C)C)cc3C)c(C)nn12 [Compound 1-3 (HCl), 5-{7-[({4-[2-(dimethylamino)-1,3-thiazol-4-yl]phenyl}methyl)(propyl)amino]-2,5-dimethylpyrazolo[1,5-a]pyrimidin-3-yl}-N,N,4-trimethylpyridin-2-amine]
Measured pH ([2]; 50 mM BB pH 9): pH 8.7
Solubility ([2]; 50 mM BB pH 9): Below
Measured pH ([2]; 50 mM CB pH 3): pH 3.2
Solubility ([2]; 50 mM CB pH 3): 0.8 mg/mL FB
Measured pH ([2]; 50 mM CB pH 4): pH 3.9
Solubility ([2]; 50 mM CB pH 4): 0 mg/mL FB
Measured pH ([2]; 50 mM CB pH 6): pH 5.8
Solubility ([2]; 50 mM CB pH 6): 0 mg/mL FB
Measured pH ([2]; 50 mM PB pH 2): pH 2.9
Solubility ([2]; 50 mM PB pH 2): 4.4 mg/mL FB
Measured pH ([2]; 50 mM PB pH 8): pH 7.5
Solubility ([2]; 50 mM PB pH 8): 0 mg/mL FB
Measured pH ([2]; 100% H2O): pH 3.3
Solubility ([2]; 100% H2O): 0.4 mg/mL FB
Solubility ([2]; ACN): 0.7 mg/mL FB
Solubility ([2]; Acetone): 0.4 mg/mL FB
Solubility ([2]; DMSO): 0.9 mg/mL FB
Solubility ([2]; EtOAc): 0.1 mg/mL FB
Solubility ([2]; EtOH): 5.3 mg/mL FB
Solubility ([2]; IPA): 0.8 mg/mL FB
Solubility ([2]; MeOH): 32.3 mg/mL FB
